Assay results as given in patent publication US9770500B2 (priority 2011, dated 2017).

Columns and labels:
[1] = target: T1, TcdB (Clostridioides difficile, UniProt P18177); assay type: biochemical, Clostridium difficile
[2] = test system: Caco-2 cells; details: MTT, TcdB 3.7 nM for 10 min
[3] = target: T1, TcdB
[4] = target: T2, TcdA (Clostridioides difficile, UniProt P16154); assay type: in vivo, Cd-1 mice
Description: TcdA-Exposure of Mouse Ileal Loops. Cd-1 mice (10 week old males; Charles River Labs) were fasted overnight. Ileal loops were ligated in anesthetized animals via laparotomy and injected with 0.15 ml of purified TcdA, TcdA-SNO or TcdA-NEM (10 μg) or buffer as described (Savidge et al., Gastroenterology 125:413-20 (2003); Oiu et al., Gastroenterology 111: 409-18 (1996)). […] Four hrs after TcdA administration, mice were euthanized and fluid secretion was determined as the loop weight ([…])-to-length (cm) ratio. Full thickness loops were frozen in liquid nitrogen or fixed in 10% formalin in PBS (pH 7.2) for 24 hours and embedded in paraffin using routine procedures. Histological severity of enteritis was evaluated by assessing (1) epithelial cell necrosis, (2) hemorrhagic congestion and edema of the mucosa, and (3) neutrophil margination and tissue infiltration (Savidge et al., Gastroenterology 125:413-20 (2003); Oiu et al., Gastroenterology 111: 409-18 (1996)).
Myeloperoxidase Assay. Neutrophil myeloperoxidase (MPO) activity is an indicator of tissue inflammation. Intestinal segments (100-250 mg) were homogenized in 1 ml HTAB buffer and centrifuged at 20,000×g for 10 min at 4° C. Pellets were resuspended in 1 ml HTAB buffer containing 1% hexadecyltrimethlammonium to negate pseudoperoxidase activity. MPO activity was measured in supernatants following 3 cycles of sonication, freezing and thawing. After centrifugation at 40,000×g for 15 min at 4° C., supernatants (10 μl) were mixed with 90 μl of potassium phosphate buffer containing 0.167 mg/ml O-dianiside dihydrochloride and 0.0005% hydrogen peroxide. Activity was measured every 2 minutes for 20 minutes at 450 nm.
Quantitative Cytokine mRNA Measurements. Total RNA was extracted from cells or frozen tissues, treated with 1 U DNAse I and reversed transcribed (Gene Amp RNA-PCR Kit). Real-time rtPCR reactions were run with SYBR Green PCR Master-Mix for 40 cycles on a Chromo4 detector (Bio-Rad Ltd) (94° C. for 2 min; 94° C. for 1 min; 60° C. for 1 min; 72QC for lmin; repeat step 2-to-4 for 40 cycles; 72° C. for 10 min). Primer sets were for human IL-8: (Forward 5′-[…]-3′ SEQ ID NO:2; Reverse 5′-[…]-3′ SEQ ID NO:3); murine TNFα (Forward 5′-[…]-3′ SEQ ID NO:4, Reverse 5′-[…] […]-3′ SEQ ID NO:5); murine […] (Forward 5′-TTGAC[…]-3′ SEQ ID NO:6, Reverse 5′-[…]-3′ SEQ ID NO:7). Samples were normalized against commercial GAPDH or 18S rRNA primers and probes (Applied Biosystems) and relative expression levels were calculated as previously described (Savidge et al., Gastroenterology 132:1344-58 (2007)).

[5] = test system: C. difficile VPI 10463; assay type: in vivo, C57BL/6 mice
Excerpt: Murine C. Difficile Infection Model. A conventional mouse model of antibiotic-induced C. difficile infection that closely resembles the spectrum of disease manifest in humans was used as described (Chen et al., Gastroenterology 135:1984-92 (2008)). Disease severity varies from fulminant with typical histopathologic features of C. difficile infection, to minimal diarrhea depending on challenge dose. 12 week-old C57BL/6 mice were pre-treated for three days with a mixture of antibiotics shown to disrupt the intestinal microflora (Chen et al., Gastroenterology 135:1984-92 (2008)). After two days, mice were injected with clindamycin and were challenged intragastrically with 10^6 C. difficile VPI 10463 vegetative cells the following day. […] Oral administration of vancomycin (50 mg/kg/day) was used as a positive control.

[6] = in vivo; cited from earlier work
[7] = target: T2, TcdA; assay: cell-based
[8] = target: toxin glucosyltransferase activity (Clostridioides difficile, UniProt P16154); assay type: biochemical, Clostridium difficile
Description: Cell Free Rac1 Glucosvlation Assay. Glucosyltransferase activity of TcdA and TcdA-SNO was measured by their ability to glucosylate Rho GTPase Rac1 in a cell-free assay. Caco-2 cell pellets were resuspended in glucosylation buffer (50 mM HEPES, pH 7.5, 100 mM KCl, 1 mM MnCl2 and 2 mM MgCl2) and lysed with a syringe (25G, 40 passes through the needle). After centrifugation (167,000×g, 3 min), the supernatant was used as a post-nuclear cell lysate. To perform the glucosylation assay, the cell lysates were incubated with TcdA or TcdA-SNO (final concentration of the toxins was 5 μg/ml) at 37° C. for 30 min. The reaction was terminated by heating at 100° C. for 5 min in SDS-sample buffer. To measure Rac1 glucosylation levels, lysates were separated on a 4-20% gradient SDS-PAGE gel and transferred onto a nitrocellulose membrane. An antibody that specifically recognizes the non-glucosylated form of Rac1 (clone 102, BD Bioscience) was used for detection.

[9] = test system: C. difficile toxin
[10] = target: C. difficile TcdA holotoxin (Clostridioides difficile, UniProt P16154); assay type: binding, Clostridium difficile
[11] = target: deoxygenated hemoglobin (Homo sapiens, UniProt P68871); assay type: binding

T1 sequence (P18177 2-2366 limits assumed): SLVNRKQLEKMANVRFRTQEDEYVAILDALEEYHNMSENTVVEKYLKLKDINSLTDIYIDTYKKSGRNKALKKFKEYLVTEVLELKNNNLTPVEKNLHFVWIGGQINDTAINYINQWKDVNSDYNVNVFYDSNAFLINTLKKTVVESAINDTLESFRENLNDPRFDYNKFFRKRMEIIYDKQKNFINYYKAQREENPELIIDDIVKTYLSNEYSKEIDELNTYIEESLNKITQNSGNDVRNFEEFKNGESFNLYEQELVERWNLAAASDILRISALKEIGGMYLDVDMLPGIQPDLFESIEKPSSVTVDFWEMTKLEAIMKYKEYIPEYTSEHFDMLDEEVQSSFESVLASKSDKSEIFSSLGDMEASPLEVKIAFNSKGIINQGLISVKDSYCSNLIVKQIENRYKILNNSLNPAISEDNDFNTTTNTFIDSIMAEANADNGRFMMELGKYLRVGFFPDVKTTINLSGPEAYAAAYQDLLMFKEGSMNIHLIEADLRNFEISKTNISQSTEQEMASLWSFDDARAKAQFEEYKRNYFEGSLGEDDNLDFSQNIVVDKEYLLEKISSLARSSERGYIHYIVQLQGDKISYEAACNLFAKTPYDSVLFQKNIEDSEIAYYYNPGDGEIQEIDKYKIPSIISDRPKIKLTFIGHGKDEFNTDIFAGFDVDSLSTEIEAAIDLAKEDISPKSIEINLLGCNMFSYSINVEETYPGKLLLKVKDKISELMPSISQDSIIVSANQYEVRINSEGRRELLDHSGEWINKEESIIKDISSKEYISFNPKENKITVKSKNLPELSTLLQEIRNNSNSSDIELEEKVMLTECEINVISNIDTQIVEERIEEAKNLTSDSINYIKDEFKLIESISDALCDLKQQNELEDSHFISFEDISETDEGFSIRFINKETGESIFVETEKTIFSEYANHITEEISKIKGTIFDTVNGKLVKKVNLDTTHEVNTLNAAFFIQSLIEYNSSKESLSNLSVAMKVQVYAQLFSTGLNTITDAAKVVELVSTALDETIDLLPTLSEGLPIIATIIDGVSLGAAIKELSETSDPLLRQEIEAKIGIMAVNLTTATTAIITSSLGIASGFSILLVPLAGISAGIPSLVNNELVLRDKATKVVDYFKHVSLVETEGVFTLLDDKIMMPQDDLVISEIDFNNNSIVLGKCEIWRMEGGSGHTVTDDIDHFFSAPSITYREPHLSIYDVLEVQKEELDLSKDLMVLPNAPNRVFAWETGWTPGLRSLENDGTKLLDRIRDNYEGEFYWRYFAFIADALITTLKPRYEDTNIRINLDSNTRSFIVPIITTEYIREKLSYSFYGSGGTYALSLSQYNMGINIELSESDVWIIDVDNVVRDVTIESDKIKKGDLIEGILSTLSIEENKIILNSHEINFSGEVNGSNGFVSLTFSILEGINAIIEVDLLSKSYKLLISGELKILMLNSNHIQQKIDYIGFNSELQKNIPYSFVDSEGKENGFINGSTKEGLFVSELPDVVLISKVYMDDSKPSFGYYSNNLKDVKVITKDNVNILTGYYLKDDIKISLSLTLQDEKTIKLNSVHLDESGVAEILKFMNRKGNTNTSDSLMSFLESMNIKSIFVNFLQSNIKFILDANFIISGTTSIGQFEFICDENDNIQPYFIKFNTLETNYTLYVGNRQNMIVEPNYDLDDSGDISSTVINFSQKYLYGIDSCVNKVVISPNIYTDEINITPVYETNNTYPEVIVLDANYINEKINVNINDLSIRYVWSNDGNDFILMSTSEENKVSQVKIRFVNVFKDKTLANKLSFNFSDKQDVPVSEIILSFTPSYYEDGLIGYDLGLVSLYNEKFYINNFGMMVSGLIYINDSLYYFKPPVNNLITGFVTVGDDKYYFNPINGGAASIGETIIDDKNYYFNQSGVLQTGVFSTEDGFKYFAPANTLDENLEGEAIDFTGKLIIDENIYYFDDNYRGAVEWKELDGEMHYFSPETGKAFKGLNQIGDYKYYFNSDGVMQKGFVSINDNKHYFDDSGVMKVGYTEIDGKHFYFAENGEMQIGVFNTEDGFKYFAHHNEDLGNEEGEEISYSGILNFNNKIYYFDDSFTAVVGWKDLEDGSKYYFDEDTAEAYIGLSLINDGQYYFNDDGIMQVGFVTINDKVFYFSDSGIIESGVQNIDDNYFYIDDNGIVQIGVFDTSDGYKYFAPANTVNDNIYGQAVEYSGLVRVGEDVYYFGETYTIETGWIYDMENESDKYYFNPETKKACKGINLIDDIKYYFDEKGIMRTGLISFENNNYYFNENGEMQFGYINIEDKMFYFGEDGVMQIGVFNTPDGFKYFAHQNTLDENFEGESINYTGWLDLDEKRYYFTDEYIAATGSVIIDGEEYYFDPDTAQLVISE
T2 sequence (P16154 whole entry, looked up): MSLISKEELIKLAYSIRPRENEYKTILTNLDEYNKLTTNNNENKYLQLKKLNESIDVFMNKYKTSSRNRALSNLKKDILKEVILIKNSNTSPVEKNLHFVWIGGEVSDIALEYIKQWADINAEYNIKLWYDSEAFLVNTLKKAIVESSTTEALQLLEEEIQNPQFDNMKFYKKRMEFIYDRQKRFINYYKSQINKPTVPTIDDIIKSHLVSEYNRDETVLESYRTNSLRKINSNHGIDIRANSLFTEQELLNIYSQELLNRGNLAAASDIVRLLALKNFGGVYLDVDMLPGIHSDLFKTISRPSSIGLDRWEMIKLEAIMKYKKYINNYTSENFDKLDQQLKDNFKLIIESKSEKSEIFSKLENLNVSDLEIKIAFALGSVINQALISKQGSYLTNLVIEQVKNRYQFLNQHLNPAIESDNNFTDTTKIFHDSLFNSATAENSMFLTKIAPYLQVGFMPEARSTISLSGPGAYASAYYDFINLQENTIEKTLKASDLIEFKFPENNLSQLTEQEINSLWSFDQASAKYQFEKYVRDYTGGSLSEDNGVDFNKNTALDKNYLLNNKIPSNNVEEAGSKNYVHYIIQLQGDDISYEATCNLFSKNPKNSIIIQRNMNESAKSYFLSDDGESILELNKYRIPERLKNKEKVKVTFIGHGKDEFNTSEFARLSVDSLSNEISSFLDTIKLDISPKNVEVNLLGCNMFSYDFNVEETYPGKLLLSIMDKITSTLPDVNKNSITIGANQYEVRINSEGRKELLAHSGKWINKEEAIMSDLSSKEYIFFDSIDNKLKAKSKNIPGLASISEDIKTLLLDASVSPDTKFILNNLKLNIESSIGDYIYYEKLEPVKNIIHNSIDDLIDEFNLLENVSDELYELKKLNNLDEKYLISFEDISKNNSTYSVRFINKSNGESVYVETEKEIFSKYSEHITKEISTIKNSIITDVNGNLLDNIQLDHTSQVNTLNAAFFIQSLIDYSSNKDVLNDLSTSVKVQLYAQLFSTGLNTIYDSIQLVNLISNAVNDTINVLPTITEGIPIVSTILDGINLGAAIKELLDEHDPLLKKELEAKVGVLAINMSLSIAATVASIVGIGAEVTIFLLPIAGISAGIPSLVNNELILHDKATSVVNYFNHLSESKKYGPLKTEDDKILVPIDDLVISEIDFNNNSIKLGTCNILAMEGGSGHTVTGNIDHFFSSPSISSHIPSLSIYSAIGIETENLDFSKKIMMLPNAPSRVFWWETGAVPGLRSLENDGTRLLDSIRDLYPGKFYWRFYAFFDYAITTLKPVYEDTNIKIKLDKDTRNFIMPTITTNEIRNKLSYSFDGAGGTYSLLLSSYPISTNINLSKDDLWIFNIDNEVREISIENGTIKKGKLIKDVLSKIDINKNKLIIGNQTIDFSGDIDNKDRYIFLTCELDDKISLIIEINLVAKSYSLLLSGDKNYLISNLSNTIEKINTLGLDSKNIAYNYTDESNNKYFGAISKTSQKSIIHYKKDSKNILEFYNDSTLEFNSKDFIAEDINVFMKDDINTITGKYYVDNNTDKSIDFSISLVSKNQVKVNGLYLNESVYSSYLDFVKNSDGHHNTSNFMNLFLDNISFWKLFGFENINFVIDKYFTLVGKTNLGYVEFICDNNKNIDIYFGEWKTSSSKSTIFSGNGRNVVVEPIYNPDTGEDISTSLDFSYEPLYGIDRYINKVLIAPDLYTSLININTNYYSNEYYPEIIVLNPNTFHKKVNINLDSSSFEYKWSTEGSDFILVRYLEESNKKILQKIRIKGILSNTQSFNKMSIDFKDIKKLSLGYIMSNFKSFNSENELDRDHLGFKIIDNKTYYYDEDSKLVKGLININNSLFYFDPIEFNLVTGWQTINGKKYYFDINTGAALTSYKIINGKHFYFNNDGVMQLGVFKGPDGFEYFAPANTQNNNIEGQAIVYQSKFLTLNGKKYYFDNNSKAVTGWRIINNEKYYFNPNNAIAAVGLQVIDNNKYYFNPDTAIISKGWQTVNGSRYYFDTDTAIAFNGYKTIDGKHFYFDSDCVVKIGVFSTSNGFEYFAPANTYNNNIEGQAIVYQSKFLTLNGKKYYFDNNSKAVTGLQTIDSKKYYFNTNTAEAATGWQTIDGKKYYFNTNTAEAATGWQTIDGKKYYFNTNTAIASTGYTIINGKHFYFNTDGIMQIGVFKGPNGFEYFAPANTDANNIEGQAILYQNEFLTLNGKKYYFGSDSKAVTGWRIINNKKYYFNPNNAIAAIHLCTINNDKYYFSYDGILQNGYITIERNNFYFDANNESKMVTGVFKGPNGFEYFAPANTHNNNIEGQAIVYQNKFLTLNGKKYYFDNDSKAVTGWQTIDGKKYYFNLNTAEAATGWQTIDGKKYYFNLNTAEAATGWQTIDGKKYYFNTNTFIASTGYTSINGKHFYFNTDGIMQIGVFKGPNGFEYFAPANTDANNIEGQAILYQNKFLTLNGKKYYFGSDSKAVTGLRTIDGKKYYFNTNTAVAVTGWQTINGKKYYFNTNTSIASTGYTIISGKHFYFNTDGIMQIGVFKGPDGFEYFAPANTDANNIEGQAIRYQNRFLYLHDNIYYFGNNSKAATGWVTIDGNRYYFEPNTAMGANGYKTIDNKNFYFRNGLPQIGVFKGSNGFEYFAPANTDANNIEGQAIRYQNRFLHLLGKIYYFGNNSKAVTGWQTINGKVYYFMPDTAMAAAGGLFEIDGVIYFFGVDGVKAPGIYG

O[C@H](CS)[C@H](O)CS (racemic) [DTT, dithiothreitol]
toxin autocleavage with agent alone [1]: No significant toxin autocleavage

N[C@@H](CCC(=O)N[C@@H](CS)C(=O)NCC(=O)O)C(=O)O [GSH, glutathione]
effect on InsP6 induced TcdB autocleavage [1]: potentiated | toxin autocleavage with agent alone [1]: No significant toxin autocleavage

CCOC(=O)CNC(=O)[C@H](CS)NC(=O)CC[C@H](N)C(=O)O [GSH-EE, GSH-ethyl ester]
effect on cytoprotection of eNOS expressing Caco-2 cells against TcdB [2]: reversed

N[C@@H](CCC(=O)N[C@@H](CSN=O)C(=O)NCC(=O)O)C(=O)O [GSNO, S-nitrosoglutathione]
IC50 of GSNO with inositolphosphate cofactor [3]: low micromolar range | TcdA induced fluid secretion in murine ileal loops ([4]; GSNO 10 mg/kg in 0.1 ml, TcdA 10 μg, 4 hrs): inhibits | TcdA induced TNF-α and IL-1γ gene transcripts ([4]; TcdA 10 μg, 4 hrs): significantly attenuated | toxin-induced disease activity (histological damage, inflammation, intestinal secretion) ([4]; co-injected with TcdA into ileal loops for 4 hrs): markedly reduced | survival (Kaplan-Meier) ([5]; oral gavage GSNO 10 mg/kg/day): survival benefit | tolerability [6]: well tolerated | IC50 [7]: 57.9 µM | effect on InsP6 induced TcdB autocleavage [1]: inhibited | glucosyltransferase activity in cell lysates [8]: did not inhibit toxin binding to Caco-2 cells or alter glucosyltransferase activity | toxin binding to Caco-2 cells [9]: did not inhibit | effect on InsP6 binding to the cysteine protease domain [10]: significantly inhibited

O=P(O)(O)OC1C(OP(=O)(O)O)C(OP(=O)(O)O)C(OP(=O)(O)O)C(OP(=O)(O)O)C1OP(=O)(O)O (stereo not shown) [InsP6, inositol hexakisphosphate]
effect of added InsP6 on GSNO inhibition of TNF-α and IL-1γ transcripts ([4]; InsP6 1 mM with GSNO): potentiated | effect of added InsP6 on GSNO protection against fluid secretion ([4]; InsP6 1 mM with GSNO 10 mg/kg): enhanced | effect of added InsP6 on survival benefit of GSNO ([5]; oral InsP6 0.25 mg/kg/day with GSNO 10 mg/kg/day): potentiated | binding affinity [11]: > 1.6 nM/mg protein

COC(=O)[C@@H](N)CCCNC(=N)N[N+](=O)[O-] [L-NAME, N^G-nitro-L-arginine methyl ester]
effect on cytoprotection of eNOS expressing Caco-2 cells against TcdB [2]: reversed

(rac1)-1(3)-PP-(2,3,4,5,6)InsP5 [r-InsP7]
TcdB autocleavage activity [1]: not significantly different

D-myo-5-PP-(1,2,3,4,6)InsP5 [m-InsP7]
TcdB autocleavage activity [1]: not significantly different
